Results taken from patent US20170240556A1, “BIFLUORODIOXALANE-AMINO-BENZIMIDAZOLE KINASE INHIBITORS FOR THE TREATMENT OF CANCER, AUTOIMMUNEINFLAMMATION AND CNS DISORDERS” (4SC DISCOVERY GMBH, priority 2012, published 2017).

Target: Casein kinase 1 delta (CSKN1D) (Homo sapiens, UniProt P48730)
Test: Casein kinase assay, CK1 delta
Format: biochemical
Conditions: recombinant CSKN1D 5 nM, ATP 10 μM
Procedure: The recombinant protein Casein kinase 1 delta (CSKN1D) was added to the substrate solution in a concentration of 5 nM and gently mixed. Dilution series in of compounds of the present invention in DMSO were added to the reaction mixture, followed after 20 min by addition of a mixture of ATP and ^33P-ATP (specific activity 0.01 μCi/μl final) to a final concentration of 10 μM. Reactions were carried out at 25° C. for 120 min, followed by spotting the reactions onto P81 ion exchange filter paper. Unbound phosphate was removed by washing of the filters in 0.75% phosphoric acid. […] IC50 values and curve fits were obtained using the program Prism® (Graph Pad Software).

Sequence of Casein kinase 1 delta (CSKN1D) (P48730 whole entry): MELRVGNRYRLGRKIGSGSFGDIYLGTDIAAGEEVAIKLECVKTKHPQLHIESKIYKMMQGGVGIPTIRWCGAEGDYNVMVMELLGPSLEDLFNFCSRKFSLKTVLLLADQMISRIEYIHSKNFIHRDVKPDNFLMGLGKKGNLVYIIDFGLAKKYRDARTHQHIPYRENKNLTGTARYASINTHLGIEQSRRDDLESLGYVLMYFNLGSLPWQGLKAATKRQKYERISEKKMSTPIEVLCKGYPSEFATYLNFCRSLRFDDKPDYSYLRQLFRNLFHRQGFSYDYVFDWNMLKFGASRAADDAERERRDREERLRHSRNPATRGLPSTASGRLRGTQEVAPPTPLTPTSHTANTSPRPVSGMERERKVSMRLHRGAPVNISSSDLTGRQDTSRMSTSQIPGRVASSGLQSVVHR

SMILES | IC50 [nM]
O=C(Nc1nc(C(=O)Nc2nc3cc4c(cc3[nH]2)OC(F)(F)O4)ns1)c1ccsc1 [Compound 10B, N-(2,2-difluoro-5H-[1,3]dioxolo[4′,5′:4,5]benzo[1,2-d]imidazol-6-yl)-5-(thiophene-3-carboxamido)-1,2,4-thiadiazole-3-carboxamide] | < 200
O=C(Nc1nc2cc3c(cc2[nH]1)OC(F)(F)O3)c1csc(-c2cccc(F)c2)n1 [Compound 12B, N-(2,2-difluoro-5H-[1,3]dioxolo[4′,5′:4,5]benzo[1,2-d]imidazol-6-yl)-2-(3-fluorophenyl)thiazole-4-carboxamide] | < 200
O=C(Nc1nc2cc3c(cc2[nH]1)OC(F)(F)O3)c1ccnc(N2CCSCC2)c1 [Compound 14B, N-(2,2-difluoro-5H-[1,3]dioxolo[4′,5′:4,5]benzo[1,2-d]imidazol-6-yl)-2-thiomorpholinoisonicotinamide] | < 200
O=C(Nc1nc2cc3c(cc2[nH]1)OC(F)(F)O3)c1csc(-c2cccc(OC(F)(F)F)c2)n1 [Compound 19B] | 200 to 1000
O=C(Nc1nc2cc3c(cc2[nH]1)OC(F)(F)O3)c1ccc(-c2ccccc2)cc1 [Compound 21B] | 200 to 1000
O=C(Nc1nc2cc3c(cc2[nH]1)OC(F)(F)O3)c1ccc(-n2cnnn2)cc1 [Compound 22B, N-(2,2-difluoro-5H-[1,3]dioxolo[4′,5′:4,5]benzo[1,2-d]imidazol-6-yl)-4-(1H-tetrazol-1-yl)benzamide] | < 200
O=C(Nc1nc2cc3c(cc2[nH]1)OC(F)(F)O3)c1cncc(-c2cccs2)c1 [Compound 23B, N-(2,2-difluoro-5H-[1,3]dioxolo[4′,5′:4,5]benzo[1,2-d]imidazol-6-yl)-5-(thiophen-2-yl)nicotinamide] | < 200
Cc1onc(-c2ccccc2)c1C(=O)Nc1nc2cc3c(cc2[nH]1)OC(F)(F)O3 [Compound 50, N-(2,2-difluoro-5H-[1,3]dioxolo[4′,5′:4,5]benzo[1,2-d]imidazol-6-yl)-5-methyl-3-phenylisoxazole-4-carboxamide] | > 1000
O=C(Nc1nc2cc3c(cc2[nH]1)OC(F)(F)O3)c1ccc2ccccc2n1 [Compound 59, N-(2,2-difluoro-5H-[1,3]dioxolo[4′,5′:4,5]benzo[1,2-d]imidazol-6-yl)quinoline-2-carboxamide] | > 1000
NS(=O)(=O)c1ccc(C(=O)Nc2nc3cc4c(cc3[nH]2)OC(F)(F)O4)cc1 [Compound 62, N-(2,2-difluoro-5H-[1,3]dioxolo[4′,5′:4,5]benzo[1,2-d]imidazol-6-yl)-4-sulfamoylbenzamide] | < 200

Second part, the compound after the results:

IC50 [nM] | SMILES
< 200 | O=C(Nc1nc2cc3c(cc2[nH]1)OC(F)(F)O3)c1cncc(-c2ccco2)c1 [Compound 4B, N-(2,2-difluoro-5H-[1,3]dioxolo[4′,5′:4,5]benzo[1,2-d]imidazol-6-yl)-5-(furan-2-yl)nicotinamide]
< 200 | Cn1cc(C(=O)Nc2nc3cc4c(cc3[nH]2)OC(F)(F)O4)cn1 [Compound 13B, N-(2,2-difluoro-5H-[1,3]dioxolo[4′,5′:4,5]benzo[1,2-d]imidazol-6-yl)-1-methyl-1H-pyrazole-4-carboxamide]
200 to 1000 | COc1cccc(C(=O)Nc2nc3cc4c(cc3[nH]2)OC(F)(F)O4)n1 [Compound 24B]
< 200 | O=C(Nc1nc2cc3c(cc2[nH]1)OC(F)(F)O3)c1cncc(N2CCOCC2)c1 [Compound 25B, N-(2,2-difluoro-5H-[1,3]dioxolo[4′,5′:4,5]benzo[1,2-d]imidazol-6-yl)-5-morpholinonicotinamide]
> 1000 | COc1ccnc(C(=O)Nc2nc3cc4c(cc3[nH]2)OC(F)(F)O4)c1 [Compound 26B]
200 to 1000 | O=C(Nc1nc2cc3c(cc2[nH]1)OC(F)(F)O3)c1ccc([N+](=O)[O-])cc1 [Compound 58, N-(2,2-difluoro-5H-[1,3]dioxolo[4′,5′:4,5]benzo[1,2-d]imidazol-6-yl)-4-nitrobenzamide]
< 200 | Nc1ccc(C(=O)Nc2nc3cc4c(cc3[nH]2)OC(F)(F)O4)cc1 [Compound 60, 4-amino-N-(2,2-difluoro-5H-[1,3]dioxolo[4′,5′:4,5]benzo[1,2-d]imidazol-6-yl)benzamide]
